Assay results taken from patent EP0848008A1, “Organotin compounds and compositions containing these compounds” (PHARMACHEMIE B.V., priority 1996, dated 1998).

Legend:
Format in all cases: cell-based
H226 = assay: In vitro anti-tumour cell growth inhibition (method of Skehan et al.), H226; settings: H226, non small cell lung cancer; amount which inhibits 50% of the cell growth
Description: (§1) Compounds 1, 2 and 3 were tested in vitro. together with 2 reference compounds used clinically (carboplatin and cisplatin), against MCF-7 and EVSA-T, two breast cancers, WiDr, a colon cancer, IGROV, an ovarian cancer, M19MEL, a melanoma, A498, a renal cancer, and H226, a non small cell lung cancer. The tests were carried out according to the method of Skehan et al, Journal of the National Cancer Institute, 1990; 82: 1107-1112.

MCF-7 = assay: In vitro anti-tumour cell growth inhibition (method of Skehan et al.), MCF-7; settings: MCF-7, breast cancer; amount which inhibits 50% of the cell growth
Description: as §1

WiDr = assay: In vitro anti-tumour cell growth inhibition (method of Skehan et al.), WiDr; settings: colon cancer, amount which inhibits 50% of the cell growth
Description: as §1

EVSA-T = assay: In vitro anti-tumour cell growth inhibition (method of Skehan et al.), EVSA-T; settings: breast cancer, amount which inhibits 50% of the cell growth
Description: as §1

IGROV = assay: In vitro anti-tumour cell growth inhibition (method of Skehan et al.), IGROV; settings: ovarian cancer, amount which inhibits 50% of the cell growth
Description: as §1

M19MEL = assay: In vitro anti-tumour cell growth inhibition (method of Skehan et al.), M19MEL; settings: melanoma, amount which inhibits 50% of the cell growth
Description: as §1

A498 = assay: In vitro anti-tumour cell growth inhibition (method of Skehan et al.), A498; settings: A498, renal cancer; amount which inhibits 50% of the cell growth
Description: as §1

## CC1(C)OC(=O)CC1C(=O)[O-].CC1(C)OC(=O)CC1C(=O)[O-].CCC[CH2][Sn+2][CH2]CCC (centres unmarked) [Compound 1, Di-n-butyltin diterebate]
H226
  ID50: 104 ng/mL
MCF-7
  ID50: 27 ng/mL
WiDr
  ID50: 134 ng/mL
EVSA-T
  ID50: 25 ng/mL
IGROV
  ID50: 18 ng/mL
M19MEL
  ID50: 61 ng/mL
A498
  ID50: 61 ng/mL

## N.N.[Cl][Pt][Cl] [Cisplatin, cisplatin, reference compound]
H226
  ID50: 3158 ng/mL
MCF-7
  ID50: 1400 ng/mL
WiDr
  ID50: 1550 ng/mL
EVSA-T
  ID50: 920 ng/mL
IGROV
  ID50: 230 ng/mL
M19MEL
  ID50: 780 ng/mL
A498
  ID50: 1200 ng/mL

## CC1(C)OC(=O)CC1C(=O)[O-].CCC[CH2][Sn+]([CH2]CCC)[CH2]CCC [Compound 2, tri-n-butyltin terebate]
H226
  ID50: 8 ng/mL
MCF-7
  ID50: 3 ng/mL
WiDr
  ID50: 11 ng/mL
EVSA-T
  ID50: <3 ng/mL
IGROV
  ID50: 4 ng/mL
M19MEL
  ID50: 11 ng/mL
A498
  ID50: 15 ng/mL

## CC1(C)OC(=O)CC1C(=O)[O-].c1cc[c]([Sn+]([c]2ccccc2)[c]2ccccc2)cc1 [Compound 3, triphenyltin terebate]
H226
  ID50: 39 ng/mL
MCF-7
  ID50: 17 ng/mL
WiDr
  ID50: 17 ng/mL
EVSA-T
  ID50: <3 ng/mL
IGROV
  ID50: 19 ng/mL
M19MEL
  ID50: 42 ng/mL
A498
  ID50: 42 ng/mL

## N.N.O=C([O-])C1(C(=O)[O-])CCC1.[Pt+2] [Carboplatin, carboplatin, reference compound]
H226
  ID50: 25000 ng/mL
MCF-7
  ID50: 10500 ng/mL
WiDr
  ID50: 3500 ng/mL
EVSA-T
  ID50: 4500 ng/mL
IGROV
  ID50: 2400 ng/mL
M19MEL
  ID50: 5500 ng/mL
A498
  ID50: 18000 ng/mL
